The source of these data is patent US20250034110A1, “LPAR1 ANTAGONISTS AND USES THEREOF” (Pipeline Therapeutics, Inc., priority 2021, published 2025).

For this test, the target named is human LPAR1 (Homo sapiens, UniProt Q92633). Description: In vitro functional assay of lysophosphatidic acid receptor 1 activity (calcium flux). Format: cell-based.
[1] abbreviates: B103 cells stably expressing human LPAR1, calcium flux (Fluo-4 NW) after lysophosphatidic acid (18:1) at EC80, 100 pM to 10 μM, read-out: LPAR1 IC50.

Each structure is given as a SMILES string. Read-outs that look alike come from different tables or passages of the source.

human LPAR1, sequence (Q92633 whole entry): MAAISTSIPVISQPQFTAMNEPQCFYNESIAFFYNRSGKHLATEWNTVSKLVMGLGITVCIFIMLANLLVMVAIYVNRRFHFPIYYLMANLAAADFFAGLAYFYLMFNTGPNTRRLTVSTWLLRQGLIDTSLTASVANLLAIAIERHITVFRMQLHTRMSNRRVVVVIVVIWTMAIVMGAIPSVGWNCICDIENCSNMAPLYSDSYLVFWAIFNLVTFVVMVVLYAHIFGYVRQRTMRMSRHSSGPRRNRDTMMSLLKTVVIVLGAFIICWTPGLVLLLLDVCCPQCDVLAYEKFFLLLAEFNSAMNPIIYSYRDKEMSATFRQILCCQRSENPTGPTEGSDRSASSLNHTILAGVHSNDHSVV

The term IC50 denotes the concentration that inhibits the measured activity by half. As for `Cc1ccc(NC(=O)N(c2ccccc2C(C)C)C2CC3(C2)CN(C(=O)Cn2nccn2)C3)c(OC(F)F)n1` [Example 84, 1-(2-(2-(2H-1,2,3-triazol-2-yl)acetyl)-2-azaspiro[3.3]heptan-6-yl)-3-(2-(difluoromethoxy)-6-methylpyridin-3-yl)-1-(2-isopropylphenyl)urea], the IC50 under setting [1] was 100 to 1000 nM.

For `Cc1ccc(NC(=O)N(c2ccccc2C(C)C)C2CC3(CC(C(=O)O)C3)C2)c(OC(F)F)n1` (stereo not shown) [Example 229], the IC50 under setting [1] was 10 to 100 nM.

For the molecule `COc1ccc(NC(=O)N(c2ccccc2C(C)C)[C@@H]2CCN(C3COC3)C2)c(OC(F)F)n1` [Example 37, (R)-3-(2-(difluoromethoxy)-6-methoxypyridin-3-yl)-1-(2-isopropylphenyl)-1-(1-(oxetan-3-yl)pyrrolidin-3-yl)urea], the IC50 under setting [1] is 100 to 1000 nM.

For `COc1ccc(NC(=O)N(c2ccccc2C(C)C)[C@H]2CC[C@@H](S(C)(=O)=O)CC2)c(OC(F)F)n1` [Example 257, 3-(2-(difluoromethoxy)-6-methoxypyridin-3-yl)-1-(2-isopropylphenyl)-1-((1s,4s)-4-(methylsulfonyl)cyclohexyl)urea], under setting [1], the IC50 is less than 10 nM.

As for `Cc1ccc(NC(=O)N(c2ccccc2C(C)C)[C@H]2CC[C@](O)(C(F)(F)C(=O)O)CC2)c(OC(F)F)n1` [Example 326], the IC50 under setting [1] is less than 10 nM.

As to `COc1ccc(NC(=O)N(c2ccccc2C(C)C)C2CC(CC(=O)O)C2)c(OC(F)F)n1` (stereo not shown) [Example 148], the IC50 under setting [1] is less than 10 nM.

For the molecule `COc1ccc(NC(=O)N(CC23CC(C(=O)O)(C2)C3(F)F)c2ccccc2C(C)C)c(OC(F)F)n1` [Example 234], the IC50 under setting [1] was in the range of 10 to 100 nM.

In the case of `Cc1ccc(NC(=O)N(c2ccccc2C(C)C)[C@H]2C[C@H](O)C2)c(OC(F)F)n1` [Example 181], the IC50 under setting [1] fell in the range of 10 to 100 nM.

Turning to `COc1ccc(NC(=O)N(c2ccccc2C(C)C)[C@H]2CC[C@H](C(=O)O)CC2)c(OCCF)n1` [Example 315, (1r,4r)-4-(3-(2-(2-fluoroethoxy)-6-methoxypyridin-3-yl)-1-(2-isopropylphenyl)ureido)cyclohexane-1-carboxylic acid], the IC50 under setting [1] was in the range of 10 to 100 nM.

For `Cc1ccc(NC(=O)N(c2ccccc2C(C)C)C2CCC(NC(=O)c3nccs3)CC2)c(OC(F)F)n1` (stereo not shown) [Example 268, N-(4-(3-(2-(difluoromethoxy)-6-methylpyridin-3-yl)-1-(2-isopropylphenyl)ureido)cyclohexyl)thiazole-2-carboxamide], the 50% inhibitory concentration (IC50) under setting [1] is 100 to 1000 nM.

With `[2H]C([2H])([2H])Oc1ccc(NC(=O)N(c2ccccc2C(C([2H])([2H])[2H])C([2H])([2H])[2H])[C@H]2CC[C@H](C(=O)O)CC2)c(OC(F)F)n1` [Example 262], the IC50 under setting [1] was less than 10 nM.

Turning to `COc1ccc(NC(=O)N(c2ccccc2C(C)C)C2CCC(=O)CC2)c(OC(F)F)n1` [Example 276, 3-(2-(difluoromethoxy)-6-methoxypyridin-3-yl)-1-(2-isopropylphenyl)-1-(4-oxocyclohexyl)urea], the IC50 under setting [1] is 100 to 1000 nM.

As for `COc1ccc(NC(=O)N(c2ccccc2C(C)C)[C@H]2CCC[C@H](C(=O)O)C2)c(OC(F)F)n1` [Example 146], the IC50 under setting [1] fell in the range of 10 to 100 nM.

Take `Cc1ccc(NC(=O)N(c2ccccc2C(C)C)[C@H]2CC[C@H](C#N)CC2)c(OC(F)F)n1` [Example 241, 1-((1r,4r)-4-cyanocyclohexyl)-3-(2-(difluoromethoxy)-6-methylpyridin-3-yl)-1-(2-isopropylphenyl)urea]: the IC50 under setting [1] is 100 to 1000 nM.

As for `Cc1ccc(NC(=O)N(c2ccccc2C(C)C)C2CC3(C2)CN(C(=O)NC2CC2)C3)c(OC(F)F)c1` [Example 126], under setting [1], the IC50 is 10 to 100 nM.

Regarding `COC(=O)C1CC(N(C(=O)Nc2ncc(Br)cc2OC(F)F)c2ccccc2C(C)C)C1` (stereo not shown) [Example 177], under setting [1], the IC50 is 10 to 100 nM.

As for `Cc1ccc(NC(=O)N(c2ccccc2C(C)C)[C@H]2CC[C@@H](CC(=O)O)CC2)c(OC(F)F)n1` [Example 166, 2-((1s,4s)-4-(3-(2-(difluoromethoxy)-6-methylpyridin-3-yl)-1-(2-isopropylphenyl)ureido)cyclohexyl)acetic acid], the IC50 under setting [1] was 10 to 100 nM.

Turning to `COC(=O)C1CC(CN(C(=O)Nc2ccc(C)nc2OC(F)F)c2ccccc2C(C)C)C1` (stereo not shown) [Example 169], the 50% inhibitory concentration (IC50) under setting [1] was in the range of 10 to 100 nM.

In the case of `CNC(=O)CC1CC(N(C(=O)Nc2ccc(C)nc2OC(F)F)c2ccccc2C(C)C)C1` (stereo not shown) [Example 190, 2-(3-(3-(2-(difluoromethoxy)-6-methylpyridin-3-yl)-1-(2-isopropylphenyl)ureido)cyclobutyl)-N-methylacetamide], under setting [1], the IC50 fell in the range of 100 to 1000 nM.

For `CC(=O)N1CCC(N(C(=O)Nc2ccc(C)nc2OC(F)F)c2cccc(C)c2)CC1` [Example 33, 1-(1-acetylpiperidin-4-yl)-3-(2-(difluoromethoxy)-6-methylpyridin-3-yl)-1-(m-tolyl)urea], the IC50 (LPAR1 IC50) is greater than 1000 nM.

With `COc1ccc(NC(=O)N(c2ccccc2C(C)C)[C@H]2CC[C@H](C(=O)NO)CC2)c(OC(F)F)n1` [Example 281], the IC50 under setting [1] lay in the range of 10 to 100 nM.

As to `Cc1ccc(NC(=O)N(c2ccccc2C(C)C)[C@H]2C[C@@H](CO)C2)c(OC(F)F)n1` [Example 193, 3-(2-(difluoromethoxy)-6-methylpyridin-3-yl)-l-((1 s,3s)-3-(hydroxymethyl)cyclobutyl)-1-(2-isopropylphenyl)urea], the IC50 under setting [1] was in the range of 100 to 1000 nM.

Regarding `COc1ccc(NC(=O)N(c2ccccc2C(C)C)C2CCCN(C)C2=O)c(OC(F)F)n1` (stereo not shown) [Example 45, 3-(2-(difluoromethoxy)-6-methoxypyridin-3-yl)-1-(2-isopropylphenyl)-1-(1-methyl-2-oxopiperidin-3-yl)urea], the concentration for half-maximal inhibition (IC50) under setting [1] fell in the range of 100 to 1000 nM.

`CC(C)c1ccccc1N(C(=O)Nc1cc(F)c(C2CC2)nc1OC(F)F)[C@H]1CC[C@H](C(=O)O)CC1` [Example 223]: the IC50 under setting [1] fell in the range of 10 to 100 nM.

With `Cc1ccc(NC(=O)N(c2ccccc2C(C)C)[C@H]2CC[C@H](c3nnn[nH]3)CC2)c(OC(F)F)n1` [Example 248], under setting [1], the IC50 fell in the range of 100 to 1000 nM.

With `Cc1ccc(NC(=O)N(c2ccccc2C(C)C)C2CCN(S(C)(=O)=O)CC2)c(OC(F)F)n1` [Example 73, 3-(2-(difluoromethoxy)-6-methylpyridin-3-yl)-1-(2-isopropylphenyl)-1-(1-(methylsulfonyl)piperidin-4-yl)urea], the half-maximal inhibitory concentration (IC50) (LPAR1 IC50) is less than 10 nM.

As for `Cc1ccc(NC(=O)N(c2ccccc2C(C)C)[C@@H]2CC[C@@H](C(=O)O)C2)c(OC(F)F)n1` [Example 303], the IC50 under setting [1] was less than 10 nM.

As for `Cc1ccc(NC(=O)N(c2ccccc2C(C)C)C2CC3(CCC(C(=O)O)CC3)C2)c(OC(F)F)n1` (stereo not shown) [Example 249], the half-maximal inhibitory concentration (IC50) under setting [1] was 10 to 100 nM.

Turning to `COc1ccc(NC(=O)N(c2ccccc2C(C)C)[C@H]2CC[C@@H](OC)CC2)c(OC(F)F)n1` [Example 39, 3-(2-(difluoromethoxy)-6-methoxypyridin-3-yl)-1-(2-isopropylphenyl)-1-((1s,4s)-4-methoxycyclohexyl)urea], the concentration for half-maximal inhibition (IC50) under setting [1] is 100 to 1000 nM.

Consider `Cc1ccc(NC(=O)N(CC23CCC(C(=O)O)(CC2)CC3)c2ccccc2C(C)C)c(OC(F)F)n1` [Example 167], for which the IC50 under setting [1] lay in the range of 10 to 100 nM.

Consider `Cc1ccc(NC(=O)N(c2ccccc2C(C)C)[C@H]2C[C@@H](O)C2)c(OC(F)F)n1` [Example 182], for which, under setting [1], the IC50 was 100 to 1000 nM.

In the case of `COC[C@H](C)Oc1cc(C)ncc1NC(=O)N(c1ccccc1C(C)C)[C@H]1CC[C@H](C(=O)O)CC1` [Example 317, trans-4-(1-(2-isopropylphenyl)-3-(4-(((S)-1-methoxypropan-2-yl)oxy)-6-methylpyridin-3-yl)ureido)cyclohexane-1-carboxylic acid], the IC50 under setting [1] is 100 to 1000 nM.

Turning to `Cc1ccc(NC(=O)N(c2ccccc2C(C)C)[C@H]2C[C@@H](CC(N)=O)C2)c(OC(F)F)n1` [Example 189], the concentration for half-maximal inhibition (IC50) under setting [1] lay in the range of 100 to 1000 nM.

For the molecule `Cc1ccc(NC(=O)N(c2ccccc2C(C)C)C2CC(=O)C2)c(OC(F)F)n1` [Example 195], under setting [1], the IC50 fell in the range of 10 to 100 nM.

For the molecule `Cc1ccc(NC(=O)N(CC2CC(CC(=O)O)C2)c2ccccc2C(C)C)c(OC(F)F)n1` (stereo not shown) [Example 224], under setting [1], the IC50 was less than 10 nM.

For the molecule `CC(=O)N1CCC(N(C(=O)Nc2ccc(C)nc2OC(F)F)c2ccccc2C(C)C)CC1` [Example 66, 1-(1-acetylpiperidin-4-yl)-3-(2-(difluoromethoxy)-6-methylpyridin-3-yl)-1-(2-isopropylphenyl)urea], the IC50 (LPAR1 IC50) is less than 10 nM.

As for `CC(=O)N1CC2(CC(N(C(=O)Nc3ncc(Br)cc3OC(F)F)c3ccccc3C(C)C)C2)C1` [Example 123, 1-(2-acetyl-2-azaspiro[3.3]heptan-6-yl)-3-(5-bromo-3-(difluoromethoxy)pyridin-2-yl)-1-(2-isopropylphenyl)urea], the IC50 under setting [1] lay within 100 to 1000 nM.

With `Cc1ccc(NC(=O)N(CC2CS(=O)(=O)C2)c2ccccc2C(C)C)c(OC(F)F)n1` [Example 19, 3-(2-(difluoromethoxy)-6-methylpyridin-3-yl)-1-((1,1-dioxidothietan-3-yl)methyl)-1-(2-isopropylphenyl)urea], the IC50 under setting [1] was in the range of 100 to 1000 nM.

Turning to `Cc1ccc(NC(=O)N(CC23CC(C(=O)O)(C2)C3(F)F)c2ccccc2C(C)C)c(OC(F)F)n1` [Example 235], under setting [1], the IC50 lay within 10 to 100 nM.

For the molecule `COc1ccc(NC(=O)N(c2ccccc2C(C)C)[C@H]2CCN(C(C)=O)C[C@H]2F)c(OC(F)F)n1` (racemic) [Example 47, rac-1-((3R,4S)-1-acetyl-3-fluoropiperidin-4-yl)-3-(2-(difluoromethoxy)-6-methoxypyridin-3-yl)-1-(2-isopropylphenyl)urea], for the setting “LPAR1 IC50”, the IC50 was in the range of 10 to 100 nM.

`COc1ccc(NC(=O)N(c2ccccc2C2CC2)[C@H]2CC[C@@H](C(=O)O)CC2)c(OC(F)F)n1` [Example 274]: the IC50 under setting [1] was 100 to 1000 nM.

In the case of `COc1ccc(NC(=O)N(c2ccccc2C(C)C)C2CN(C(C)=O)C2)c(OC(F)F)n1` [Example 41, 1-(1-acetylazetidin-3-yl)-3-(2-(difluoromethoxy)-6-methoxypyridin-3-yl)-1-(2-isopropylphenyl)urea], the IC50 under setting [1] was 100 to 1000 nM.

With `CC(=O)N1CC(N(C(=O)Nc2ccc(C)nc2OC(F)F)c2ccccc2C(C)C)C1` [Example 67, 1-(1-acetylazetidin-3-yl)-3-(2-(difluoromethoxy)-6-methylpyridin-3-yl)-1-(2-isopropylphenyl)urea], the IC50 under setting [1] lay in the range of 10 to 100 nM.
